Measured values: patent US10660789B2, “1,4-dihydropyridine derivatives with HSP modulating activity” (Richter Gedeon NYRT., priority 2011, dated 2020)
Counter-ions that a name gives are not always drawn.

Columns and labels:
[1] = system: Hsp25 promoter; assay: Hsp25 promoter-GFP reporter in SHSY5Y cells, flow cytometry; assay type: cell-based, human; details: FIG. 2
Experimental: The Hsp co-inducing effect of the compounds on stress response was tested on B16 mouse melanoma and SHSY5Y human neuroblastoma cell lines stably transfected with Hsp promoter probing plasmids. This kind of promoter probing, using the promoter region of a given gene conjugated with fluorescent protein is used as a best and fastest test system for finding drugs which modulate the activity of the gene followed by the given promoter (Wyshocka et al., Mol. Cel. Biochem. 215:153-156, 2000).
Reporter plasmids, containing the Hsp70 and/or Hsp25 promoter conjugated to either YFP or GFP (yellow or green fluorescent protein), were stably transfected into the cells and the expression of YFP or GFP was followed by flow cytometry. Cells were either kept at 37° C. or exposed to heat shock at 42° C. for 1 hour followed by a 16 hour recovery period at 37° C. in the presence or absence of different concentrations of the test compound. After recovery the expression of YFP or GFP which is in straight correlation with the promoter activity of Hsp70 or Hsp27 genes was followed by measuring the fluorescence intensity of the cells by flow cytometry. Fluorescence intensity is in straight correlation with the amount of fluorescent protein (GFP or YFP) produced under the control of hsp promoter. The mean fluorescence intensity of YFP or GFP produced is shown as “Hsp promoter activity”.
The fluorescence intensity of GFP and YFP […].
Selectivity of the Hsp25 co-inducing activity of compound of Ex. 11 is shown on FIG. 3. […] The fluorescence intensity of GFP produced as a result of Hsp25 promoter activity was measured by flow cytometry.
Cells were homogenously distributed on 6-well plates in 1×10^5 cells/well density. B16-pHsp25-GFP and B16-pHsp70-YFP melanoma cells were grown in RPMI-1640 medium supplemented with 10% Fetal bovine serum (FBS), penicillin (200 units/ml), streptomycin (200 μg/ml) and 2 mM L-Glutamine. […] The changes in cells' fluorescence were detected using BD FACSCalibur flow cytometer.

[2] = system: APP mutant transgenic mice; assay: Morris water maze, wild and APP mutant transgenic mice; assay type: in vivo, mouse; details: daily i.p. for 6 months, FIG. 6
Text: The neuro- and memoryprotective effect of the compounds of invention was studied on wild and APP mutant transgenic mice. These mice express high levels of mutant beta-amyloid and, with increasing age, develop both substantial amyloid plaque load and memory deficits. Spatial memory disfunction [with the Morris water maze (MWM) behavioural task assay] and histological assays (cell density, astroglial response, tau-pathology, amyloid-histology and dendritic spine density) in the hippocampal (HC) region (key area for the memory-function) were performed.
The Morris water navigation task is a behavioral procedure widely used in behavioral neuroscience to study spatial learning and memory. The classic measure of learning is latency, which is the time it takes to find the platform after repeating the task daily.
16 adult female APP+ transgenic and 16 adult female wild type mice were the subjects of the experiment. The animals were housed in sterile mouse cages with a natural dark/light cycle, they had free access to food and water throughout the experiment. After arrival, the mice were daily gently handled for a week. […]
Spatial learning and memory were assessed in a circular pool (diameter: 130 cm, height: 60 cm), filled with water (23±1° C.) and made opaque with milk. […]
The data were recorded and evaluated automatically by using a video tracking system. […]

SMILES: COC(=O)C1=C(CCN(C)C)N(C)C(CCN(C)C)=C(C(=O)OC)C1c1ccc(C(F)(F)F)cc1 [Example 23, Dimethyl 4-(4-trifuoromethylphenyl)-2,6-bis-(2-dimethylaminoethyl)-1-methyl-1,4-dihydropyridine-3,5-dicarboxylate dihydrochloride]
- effect on the expression of Hsp25 [1]: no effect on the expression of Hsp25
- spatial memory, time to find the hidden platform in Morris water maze [2]: enhances the ability of both the wild type and the memory deficit mutant mice to find the hidden platform
